Laboratory results published in patent publication US6479435B1, “Diaryl ethers and processes for their preparation and herbicidal and desiccant compositions containing them” (ISK Americas Incorporated, priority 1997, dated 2002).

Columns and labels:
Assay type in all cases: in vivo
[1] = tested on: upland rice (Oryza sp., var.Tebonnet, RICE); experiment: Pre-emerge greenhouse test, crop damage rating; details: 14 days after application, rating scale 0-100
Outline: (§1)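 Visual 0–100 injury rating (100 = all plants dead) taken 14 days after treatment. Rates of 125–1000 g ai/ha in acetone, 187 l/ha, were sprayed onto soil one day post-sowing; pots were surface-watered to incorporate, then bottom-watered.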

[2] = tested on: field corn (Zea mays L., var. Dekalb 535, CORN); experiment: Pre-emerge greenhouse test, crop damage rating; details: 14 days after application, rating scale 0-100
Outline: as §1

[3] = tested on: soybean (Glycine max L., var. Pella 86, SOY); experiment: Post-emerge greenhouse test, crop damage rating; design: key to crop damage rating SOY: 0-100 scale: 0 = no damage, 100 = complete death of all plants; details: 14 days after application, scale 0-100
Outline: (§2)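 Scores use a 0 (no damage) to 100 (complete kill) scale, taken 14 days after a foliar spray. Acetone solutions with 0.25% v/v non-ionic surfactant were applied by track sprayer at 187 l/ha and 63-1000 g ai/ha to bottom-watered 2-3 leaf plants.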

[4] = tested on: upland rice (Oryza sp., var.Tebonnet, RICE); experiment: Post-emerge greenhouse test, crop damage rating; details: 14 days after application, scale 0-100
Outline: as §2

[5] = tested on: field corn (Zea mays L., var. Dekalb 535, CORN); experiment: Post-emerge greenhouse test, crop damage rating; details: 14 days after application, scale 0-100
Outline: as §2

[6] = tested on: soybean (Glycine max L., var. Pella 86, SOY); experiment: Pre-emerge greenhouse test, crop damage rating; design: key to SOY crop damage rating: 0 = no damage, 100 = complete death of all plants; details: 14 days after application, rating scale 0-100
Outline: as §1

[7] = tested on: Johnsongrass (Sorghum halepense, SORHA); experiment: Post-emerge greenhouse herbicide test, phytotoxicity rating; details: 14 days after application, scale 0-100
Outline: as §2

[8] = tested on: velvetleaf (Abutilon theophrasti, ABUTH); experiment: as above; details: 14 days after application, scale 0-100
Outline: as §2

[9] = tested on: sicklepod (Cassia obtusifolia, CASOB); experiment: as above; details: 14 days after application, scale 0-100
Outline: as §2

[10] = tested on: ivyleaf morningglory (Ipomoea hederacea, IPOHE); experiment: as above; details: 14 days after application, scale 0-100
Outline: as §2

[11] = tested on: lambsquarters (Chenopodium album, CHEAL); experiment: as above; details: 14 days after application, scale 0-100
Outline: as §2

[12] = tested on: barnyardgrass (Echinochloa crusgalli, ECHCG); experiment: as above; details: 14 days after application, scale 0-100
Outline: as §2

[13] = tested on: green foxtail (Setaria viridis, SETVI); experiment: as above; details: 14 days after application, scale 0-100
Outline: as §2

[14] = tested on: large crabgrass (Digitaria sanguinalis, DIGSA); experiment: as above; details: 14 days after application, scale 0-100
Outline: as §2

[15] = tested on: redroot pigweed (Amaranthus retroflexus, AMARE); experiment: as above; details: 14 days after application, scale 0-100
Outline: as §2

[16] = tested on: common ragweed (Ambrosia artemisiifolia L., AMBEL); experiment: as above; details: 14 days after application, scale 0-100
Outline: as §2

[17] = tested on: Johnsongrass (Sorghum halepense, SORHA); experiment: Pre-emerge greenhouse herbicide test, phytotoxicity rating; details: 14 days after application, rating scale 0-100
Outline: as §1

[18] = tested on: velvetleaf (Abutilon theophrasti, ABUTH); experiment: as above; details: 14 days after application, rating scale 0-100
Outline: as §1

[19] = tested on: sicklepod (Cassia obtusifolia, CASOB); experiment: as above; details: 14 days after application, rating scale 0-100
Outline: as §1

[20] = tested on: ivyleaf morningglory (Ipomoea hederacea, IPOHE); experiment: as above; details: 14 days after application, rating scale 0-100
Outline: as §1

[21] = tested on: lambsquarters (Chenopodium album, CHEAL); experiment: as above; details: 14 days after application, rating scale 0-100
Outline: as §1

[22] = tested on: common ragweed (Ambrosia artemisiifolia L., AMBEL); experiment: as above; details: 14 days after application, rating scale 0-100
Outline: as §1

[23] = tested on: barnyardgrass (Echinochloa crusgalli, ECHCG); experiment: as above; details: 14 days after application, rating scale 0-100
Outline: as §1

[24] = tested on: green foxtail (Setaria viridis, SETVI); experiment: as above; details: 14 days after application, rating scale 0-100
Outline: as §1

[25] = tested on: large crabgrass (Digitaria sanguinalis, DIGSA); experiment: as above; details: 14 days after application, rating scale 0-100
Outline: as §1

[26] = tested on: redroot pigweed (Amaranthus retroflexus, AMARE); experiment: as above; details: 14 days after application, rating scale 0-100
Outline: as §1

## O=c1n(-c2cc(Oc3nc(F)c(F)cc3F)c(Cl)cc2F)c(=S)n2n1CCCC2 [Compound 8-28]
[1]; Rate 125 g al/ha
  RICE crop damage rating: 25
[1]; Rate 500 g al/ha
  RICE crop damage rating: 70
[2]; Rate 125 g al/ha
  CORN crop damage rating: 15
[2]; Rate 500 g al/ha
  CORN crop damage rating: 15
[3]; rate 63 g ai/ha
  crop damage rating SOY: 50
[3]; rate 500 g ai/ha
  crop damage rating SOY: 90
[4]; rate 63 g ai/ha
  crop damage rating RICE: 10
[4]; rate 500 g ai/ha
  crop damage rating RICE: 40
[5]; rate 63 g ai/ha
  crop damage rating CORN: 10
[5]; rate 500 g ai/ha
  crop damage rating CORN: 20
[6]; Rate 125 g al/ha
  SOY crop damage rating: 10
[6]; Rate 500 g al/ha
  SOY crop damage rating: 10
[7]; rate 63 g ai/ha
  phytotoxicity rating SORHA: 40
[7]; rate 500 g ai/ha
  phytotoxicity rating SORHA: 60
[8]; rate 63 g ai/ha
  phytotoxicity rating ABUTH: 100
[8]; rate 500 g ai/ha
  phytotoxicity rating ABUTH: 100
[9]; rate 63 g ai/ha
  phytotoxicity rating CASOB: 50
[9]; rate 500 g ai/ha
  phytotoxicity rating CASOB: 100
[10]; rate 63 g ai/ha
  phytotoxicity rating IPOHE: 90
[10]; rate 500 g ai/ha
  phytotoxicity rating IPOHE: 95
[11]; rate 63 g ai/ha
  phytotoxicity rating CHEAL: 90
[11]; rate 500 g ai/ha
  phytotoxicity rating CHEAL: 100
[12]; rate 63 g ai/ha
  phytotoxicity rating ECHCG: 10
[12]; rate 500 g ai/ha
  phytotoxicity rating ECHCG: 80
[13]; rate 63 g ai/ha
  phytotoxicity rating SETVI: 30
[13]; rate 500 g ai/ha
  phytotoxicity rating SETVI: 90
[14]; rate 63 g ai/ha
  phytotoxicity rating DIGSA: 20
[14]; rate 500 g ai/ha
  phytotoxicity rating DIGSA: 30
[15]; rate 63 g ai/ha
  phytotoxicity rating AMARE: 100
[15]; rate 500 g ai/ha
  phytotoxicity rating AMARE: 100
[16]; rate 63 g ai/ha
  phytotoxicity rating AMBEL: 50
[16]; rate 500 g ai/ha
  phytotoxicity rating AMBEL: 90
[17]; Rate 125 g al/ha
  SORHA phytotoxicity rating: 90
[17]; Rate 500 g al/ha
  SORHA phytotoxicity rating: 95
[18]; Rate 125 g al/ha
  ABUTH phytotoxicity rating: 100
[18]; Rate 500 g al/ha
  ABUTH phytotoxicity rating: 100
[19]; Rate 125 g al/ha
  CASOB phytotoxicity rating: 100
[19]; Rate 500 g al/ha
  CASOB phytotoxicity rating: 90
[20]; Rate 125 g al/ha
  IPOHE phytotoxicity rating: 30
[20]; Rate 500 g al/ha
  IPOHE phytotoxicity rating: 40
[21]; Rate 125 g al/ha
  CHEAL phytotoxicity rating: 100
[21]; Rate 500 g al/ha
  CHEAL phytotoxicity rating: 100
[22]; Rate 125 g al/ha
  AMBEL phytotoxicity rating: 80
[22]; Rate 500 g al/ha
  AMBEL phytotoxicity rating: 100
[23]; Rate 125 g al/ha
  ECHCG phytotoxicity rating: 60
[23]; Rate 500 g al/ha
  ECHCG phytotoxicity rating: 95
[24]; Rate 125 g al/ha
  SETVI phytotoxicity rating: 100
[24]; Rate 500 g al/ha
  SETVI phytotoxicity rating: 100
[25]; Rate 125 g al/ha
  DIGSA phytotoxicity rating: 100
[25]; Rate 500 g al/ha
  DIGSA phytotoxicity rating: 100
[26]; Rate 125 g al/ha
  AMARE phytotoxicity rating: 100
[26]; Rate 500 g al/ha
  AMARE phytotoxicity rating: 100

## O=c1n(-c2cc(Oc3nccc(C(F)(F)F)n3)c(Cl)cc2F)c(=S)n2n1CCCC2 [Compound 8-30]
[1]; Rate 125 g al/ha
  RICE crop damage rating: 20
[1]; Rate 500 g al/ha
  RICE crop damage rating: 90
[2]; Rate 125 g al/ha
  CORN crop damage rating: 10
[2]; Rate 500 g al/ha
  CORN crop damage rating: 20
[3]; rate 63 g ai/ha
  crop damage rating SOY: 95
[3]; rate 500 g ai/ha
  crop damage rating SOY: 100
[4]; rate 63 g ai/ha
  crop damage rating RICE: 5
[4]; rate 500 g ai/ha
  crop damage rating RICE: 80
[5]; rate 63 g ai/ha
  crop damage rating CORN: 15
[5]; rate 500 g ai/ha
  crop damage rating CORN: 40
[6]; Rate 125 g al/ha
  SOY crop damage rating: 80
[6]; Rate 500 g al/ha
  SOY crop damage rating: 80
[7]; rate 63 g ai/ha
  phytotoxicity rating SORHA: 20
[7]; rate 500 g ai/ha
  phytotoxicity rating SORHA: 95
[8]; rate 63 g ai/ha
  phytotoxicity rating ABUTH: 100
[8]; rate 500 g ai/ha
  phytotoxicity rating ABUTH: 100
[9]; rate 63 g ai/ha
  phytotoxicity rating CASOB: 100
[9]; rate 500 g ai/ha
  phytotoxicity rating CASOB: 100
[10]; rate 63 g ai/ha
  phytotoxicity rating IPOHE: 100
[10]; rate 500 g ai/ha
  phytotoxicity rating IPOHE: 100
[11]; rate 63 g ai/ha
  phytotoxicity rating CHEAL: 95
[11]; rate 500 g ai/ha
  phytotoxicity rating CHEAL: 100
[12]; rate 63 g ai/ha
  phytotoxicity rating ECHCG: 10
[12]; rate 500 g ai/ha
  phytotoxicity rating ECHCG: 40
[13]; rate 63 g ai/ha
  phytotoxicity rating SETVI: 60
[13]; rate 500 g ai/ha
  phytotoxicity rating SETVI: 95
[14]; rate 63 g ai/ha
  phytotoxicity rating DIGSA: 0
[14]; rate 500 g ai/ha
  phytotoxicity rating DIGSA: 10
[15]; rate 63 g ai/ha
  phytotoxicity rating AMARE: 90
[15]; rate 500 g ai/ha
  phytotoxicity rating AMARE: 100
[16]; rate 63 g ai/ha
  phytotoxicity rating AMBEL: 90
[16]; rate 500 g ai/ha
  phytotoxicity rating AMBEL: 99
[17]; Rate 125 g al/ha
  SORHA phytotoxicity rating: 40
[17]; Rate 500 g al/ha
  SORHA phytotoxicity rating: 99
[18]; Rate 125 g al/ha
  ABUTH phytotoxicity rating: 100
[18]; Rate 500 g al/ha
  ABUTH phytotoxicity rating: 100
[19]; Rate 125 g al/ha
  CASOB phytotoxicity rating: 100
[19]; Rate 500 g al/ha
  CASOB phytotoxicity rating: 100
[20]; Rate 125 g al/ha
  IPOHE phytotoxicity rating: 100
[20]; Rate 500 g al/ha
  IPOHE phytotoxicity rating: 90
[21]; Rate 125 g al/ha
  CHEAL phytotoxicity rating: 100
[21]; Rate 500 g al/ha
  CHEAL phytotoxicity rating: 100
[22]; Rate 125 g al/ha
  AMBEL phytotoxicity rating: 100
[22]; Rate 500 g al/ha
  AMBEL phytotoxicity rating: 99
[23]; Rate 125 g al/ha
  ECHCG phytotoxicity rating: 40
[23]; Rate 500 g al/ha
  ECHCG phytotoxicity rating: 99
[24]; Rate 125 g al/ha
  SETVI phytotoxicity rating: 100
[24]; Rate 500 g al/ha
  SETVI phytotoxicity rating: 100
[25]; Rate 125 g al/ha
  DIGSA phytotoxicity rating: 70
[25]; Rate 500 g al/ha
  DIGSA phytotoxicity rating: 100
[26]; Rate 125 g al/ha
  AMARE phytotoxicity rating: 100
[26]; Rate 500 g al/ha
  AMARE phytotoxicity rating: 100
